Patent publication EP2209388B1, “SACRIFICIAL ANTIOXIDANT” (Borregaard AS, priority 2007, dated 2009)

How the values were obtained:
[1] = Peroxynitrite test (total antioxidant effect), antioxidant screening; format: biochemical; settings: comparison in words of the scores of table 3
Excerpt: To assess and verify the effect of lignosulfonate as antioxidant several lignosulfonic samples have been tested in different antioxidant screenings. Table 3. Samples tested for antioxidant effect. Five types of lignosulfonates were investigated; sodium lignosulfonate, a desulfonated oxidized lignosulfonate, and three fractions of a sodium lignosulfonate; low, medium and high molecular weight. […] The desulfonated oxidized lignosulfonate had the best antioxidant effect compared to the sodium lignosulfonate samples. […] As a comparison the synthetic antioxidant Ethoxyquin, gave the highest score in the test.

[2] = Autoxidation of rosmarinic acid with oxygen at 65°C with/without lignosulfonate (Example 3), reversed-phase HPLC-UV 280 nm; format: physicochemical; parameters: unit not given here
Excerpt: The combined effect of lignosulfonate was in addition shown in autoxidation experiments using two different lignosulfonates and rosmarinic acid as a representative for a different antioxidant. […] In parallel the same concentration of antioxidant, rosmarinic acid 1%, was supplemented with lignosulfonate. The tested lignins were a sodium lignosulfonate (LS 1) and a calcium lignosulfonate (LS 2), both added in the same amounts based on dry content (17%). Samples were withdrawn daily and the amount of remaining antioxidant was chromatographically quantified. Reversed-phase HPLC with UV-detection at 280 nm was the method of choice for monitoring the positive effect of LS.

Structure (SMILES) | antioxidant effect [1] | Autoxidation of rosmarinic acid (amount of remaining antioxidant) ([2]; Day 0, rosmarinic acid 1%, lignosulfonate 17% dry content) | Autoxidation of rosmarinic acid (amount of remaining antioxidant) ([2]; Day 1) | Autoxidation of rosmarinic acid (amount of remaining antioxidant) ([2]; Day 2) | Autoxidation of rosmarinic acid (amount of remaining antioxidant) ([2]; Day 3) | Autoxidation of rosmarinic acid (amount of remaining antioxidant) ([2]; Day 4) | Autoxidation of rosmarinic acid (amount of remaining antioxidant) ([2]; Day 4, listed as rosmarinic acid)
Cc1cc(C(C)(C)C)c(O)c(C(C)(C)C)c1 [BHT, 2,6-di-tert-butyl-4-methylphenol] | scored lowest | – | – | – | – | – | –
CCOc1ccc2c(c1)C(C)=CC(C)(C)N2 [Ethoxyquin, 1,2-dihydro-6-etoxy-2,2,4-trimetylquinoline] | highest score | – | – | – | – | – | –
O=C(/C=C/c1ccc(O)c(O)c1)O[C@H](Cc1ccc(O)c(O)c1)C(=O)O [Rosmarinic acid] | – | 100 | 72 | 45 | 11 | 2 | completely degraded
